The values that follow come from patent US20200163984A1, “USE OF ISOVALERYL SPIRAMYCIN I, II AND/OR III IN MANUFACTURING MEDICAMENT FOR TREATING AND/OR PREVENTING TUMOR, AND MEDICAMENT” (SHENYANG FUYANG PHARMACEUTICAL TECHNOLOGY CO., LTD., priority 2017, published 2020).

In data set [1] the test system is transplanted tumor of human lymphoma cell U937. The data set is described as follows: U937 transplanted tumor in nude mice. The conditions noted are these: U937 nude mice, 30 mg/kg. On the procedure: (§1) U937 cells in a logarithmic growth phase were taken and subjected to a trypan blue exclusion experiment showing that the cell viability was more than 95%, then the cells were subjected to trypsinization, centrifugation, and supernatant removal. Then cell concentration was adjusted to 1×10^7/ml with matrigel, then each nude mouse was inoculated subcutaneously with 0.2 ml of cells at its right armpit and recorded as the first day of inoculation. When the tumor grows to be greater than or equal to 100 mm^3, the mice were randomly divided into 11 groups with 6 mice in each group: a model group, a cyclophosphamide group, isovaleryl spiramycin I groups with doses of 25, 50 and 100 mg/kg, isovaleryl spiramycin II groups with doses of 25, 50 and 100 mg/kg, and isovaleryl spiramycin III groups with doses of 25, 50 and 100 mg/kg. Each group was continuously administered intragastrically for 30 days with a dose of 20 ml/kg. The mice were sacrificed the next day after drug withdrawal and the indicators were tested. The long diameter and short diameter of the tumor, and the body weight of each mouse were recorded every 3 days from drug administration to nude mouse sacrifice.
(§2) The body weight of the nude mice and the long diameter (a) and short diameter (b) of the transplanted tumor were measured every 3 days, and the tumor volume (v), relative tumor volume (RTV) and relative tumor proliferation rate (T/C) are calculated respectively according to the following formulas, wherein V=a×b^2/2; RTV=V/V0 (V0 is the tumor volume before administration, V is the tumor volume before sacrifice), and T/C (%)=treatment group RTV/model control group RTV×100%.
(§3) Each mouse was weighed and sacrificed. After the tumor was completely stripped off from the body of the mouse, the non-tumor tissues such as blood stains and fat were removed to weigh the tumor and calculate the tumor growth inhibition rate. The average tumor weight of each group of mice is used as an indicator of efficacy. Tumor growth inhibition rate (%)=(1−the average tumor weight of the treatment group/the average tumor weight of the model group)×100%.

The subject of data set [2] is transplanted tumor of human esophageal cancer cell TE-1. The data set is described as follows: TE-1 transplanted tumor in nude mice. The conditions noted are these: TE-1; 30 mg/kg i.g. 30 days. On the procedure: as §1, with “Then” for “U937 cells in a logarithmic growth phase were taken and subjected to a trypan blue exclusion experiment showing that the cell viability was more than 95%, then the cells were subjected to trypsinization, centrifugation, and supernatant removal. Then”
as §2, §3

Data set [3] has as its system transplanted tumor of human non-small cell lung cancer cell A549. In words: A549 transplanted tumor in nude mice. As to conditions: A549 nude mice, 30 mg/kg. As for the experimental part: as §1, with “A549” for “U937”
as §2, §3

In the case of `O=P1(N(CCCl)CCCl)NCCCO1` (stereo not drawn) [Cyclophosphamide, cyclophosphamide, reference compound], in data set [1], the “Inhibition Rate (%)” value is listed as 65.11%, the “Relative Tumor Proliferation Rate (T/C)” value was 35.44%, the “Relative Tumor Volume (RTV)” value came to 6.04 ± 1.26 and the “Tumor Weight” value is reported as 0.68 ± 0.12 g. Moreover, in data set [1] (d1), the “Body Weight (g) (d1)” value is reported as 21.00 ± 0.72 g and the “Tumor Volume (mm3) (d 1)” value stood at 125.00 ± 32.61 mm3. Further, in data set [1] (d30), the “Body Weight (g) (d30)” value is on record as 19.72 ± 0.95 g and the “Tumor Volume (mm3) (d30)” value stood at 722.72 ± 55.32 mm3. Moreover, in data set [2], the “Body Weight (d 1)” value was 23.18 ± 1.22 g, the “Body Weight (d 30)” value is listed as 20.57 ± 1.14 g, the “Inhibition Rate (tumor growth inhibition rate)” value is 71.87% and the “Relative Tumor Proliferation Rate (T/C)” value was 30.18%. In data set [2], the “Relative Tumor Volume (RTV)” value is 4.00 ± 1.91, the “Tumor Volume (d 1)” value worked out at 269.96 ± 92.18 mm3, the “Tumor Volume (d 30)” value amounted to 886.22 ± 271.22 mm3 and the “Tumor Weight” value is given as 0.44 ± 0.18 g. Also, in data set [3], the “Inhibition Rate (%)” value amounted to 70.59%, the “Relative Tumor Proliferation Rate (T/C)” value came to 39.73%, the “Relative Tumor Volume (RTV)” value is recorded as 9.47 ± 2.91 and the “Tumor Weight” value was 0.70 ± 0.39 g. Besides, in data set [3] (d1), the “Body Weight (g) (d1)” value was found to be 21.89 ± 1.22 g and the “Tumor Volume (mm3) (d 1)” value was 115.15 ± 10.00 mm3. In addition, in data set [3] (d30), the “Body Weight (g) (d30)” value came to 19.27 ± 1.49 g and the “Tumor Volume (mm3) (d30)” value is recorded as 733.89 ± 352.79 mm3.
